In patent US20250186456A1, “PYRIMIDINE-FUSED CYCLIC COMPOUND AND PREPARATION METHOD AND USE THEREOF” (Genfleet Therapeutics (Shanghai) Inc., priority 2021, published 2025):
Like-named read-outs stand apart in the source and are kept apart here.

Legend:
Type in all cases: cell-based, human
[1] = system: AsPC-1 cells (KRAS G12D mutation); test: Cell proliferation inhibition assay, 3D, CellTiter-Glo 3D, AsPC-1; settings: AsPC-1 3D sphere model, 5 days incubation
From the text: AsPC-1 was purchased from ATCC; catalog No: CRL-1682; AGS was purchased from ATCC; catalog No: CRL-1739; RPMI1640 was purchased from Gibco; catalog No: 11875-093 2235123; F12K was purchased from Gibco; catalog No: 21127-022; FBS was purchased from Gibco; catalog No: 10099-141C; trypsin (containing EDTA) was purchased from Gibco; catalog No: 25200-072; CellTiter Glo-3D was purchased from Progema; catalog No: G9683; 384-well sphere plates were purchased from Corning; catalog No: 3830; white opaque 384-well plates were purchased from Corning; catalog No: 3570; cell counters were purchased from CHEMOMETEC; model: NC-200; microplate reader was purchased from PerkinElmer; model: Envison;
AsPC-1 is an endogenous human pancreatic cancer cell containing KRAS^G12D mutation, cultured in RPMI-1640 medium containing 10% FBS; AGS is a human gastric cancer cell line containing KRAS^G12D, cultured in F-12K medium containing 10% FBS. Cells in the logarithmic growth phase were taken, digested with trypsin (containing EDTA), collected, and counted. 800 AsPC-1 cells/well or 400 AGS cells/well, respectively, were seeded in a 384-well sphere plate and cultured overnight at 5% CO2 to establish a 3D cell model. 1000X stock solutions of compounds at a 3.16-fold concentration gradient of were prepared using DMSO, diluted 100-fold into a 10X compound stock solution using the medium described above. The 10X compound stock solution was added to each cell on 2nd day after cell seeding at a final concentration of 1X and a DMSO content of 0.1%. DMSO was used as a control in the experiment, and the medium was used as blank. After the addition of the compounds, the cells were incubated for 5 days. 30 μl of CellTiter-Glo work solution was added to each well, mixed well, and incubated for 30 minutes. After standing at room temperature for 30 minutes, 40 μl of the mixed solution was transferred to an opaque 384-well plate with a white clear bottom. Luminescence chemiluminescence value was read by a microplate reader, and the cell proliferation inhibition rate (IR (%)=(RLU control-RLU compound)/(RLU control-RLU blank)×100%) was calculated. The gradiently diluted concentration of the compounds and corresponding cell proliferation inhibition rate were fitted using XLFit four-parameters method, and the IC50 value was calculated. […] The results of some exemplary compounds are shown in Table 2 (“−” represents untested).

[2] = system: p-ERK in AGS cells (KRAS G12D mutation); test: Cell p-ERK assay (HTRF, Advance ERK phospho-T202/Y204 kit); settings: AGS cells, 3 hours incubation with compound, HTRF, read-out: AGS p-ERK IC50
Method in brief: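 Phospho-ERK (T202/Y204) measured by HTRF in lysates of human gastric AGS cells carrying KRAS G12D, after 3 h compound exposure at 0.1% DMSO over a 3.16-fold series. Percent inhibition relative to DMSO control and lysis-only blank; four-parameter curve fitting gave IC50.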

AGS cells (KRAS G12D) = test: Cell proliferation inhibition assay, 3D, CellTiter-Glo 3D, AGS; settings: AGS 3D sphere model, 5 days incubation
Method in brief: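 Spheroids (800 AsPC-1 or 400 AGS cells/well; RPMI-1640 or F-12K with 10% FBS) formed overnight, then were dosed on day 2 with a 3.16-fold series at 0.1% DMSO. After 5 days, viability was read by CellTiter-Glo 3D luminescence, and IC50 came from four-parameter fits of inhibition versus DMSO control and medium blank.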

Row | Compound | IC50 ([1]; Homo sapiens, ASPC1, 120 h) [nM] | IC50 ([2]; Homo sapiens) [nM] | IC50 (AGS cells (KRAS G12D); Homo sapiens, 120 h) [nM] | IC50 [1] [nM] | IC50 [2] [nM] | IC50 (AGS cells (KRAS G12D)) [nM]
1 | C#Cc1cccc2cc(N)cc(-c3nc4c5c(nc(OCC67CCCN6CC(F)(F)C7)nc5c3F)N3C[C@H]5CC[C@H](N5)[C@H]3[C@H](C)O4)c12 (stereo partly drawn) [Example Z706, 4-((5S,5aS,6S,9R)-12-((2,2-difluorotetrahydro-1H-pyrrolizin-7a (5H)-yl)methoxy)-1-fluoro-5-methyl-5a,6,7,8,9,10-hexahydro-5H-4-oxa-3,10a,11,13,14-pentaaza-6,9-methanonaphtho[1,8-ab]heptalen-2-yl)-5-ethynylnaphthalen-2-amine] | 37.9 | 6.64 | 26 | – | – | –
2 | C#Cc1cccc2cccc(-c3nc4c5c(nc(OC[C@@]67CCCN6C[C@H](F)C7)nc5c3F)N3C[C@H]5CC[C@H](N5)[C@H]3[C@H](C)O4)c12 [Example Z360-1, (5S,5aS,6S,9R)-2-(8-ethynylnaphthalen-1-yl)-1-fluoro-12-(((2R,7aS)-2-fluorotetrahydro-1H-pyrrolizin-7a (5H)-yl)methoxy)-5-methyl-5a,6,7,8,9,10-hexahydro-5H-4-oxa-3,10a, 11,13,14-pentaaza-6,9-methanonaphtho[1,8-ab]heptalene] | 36.4 | 29.9 | 27.8 | – | – | –
3 | C#Cc1c(F)ccc2cccc(-c3nc4c5c(nc(OCC67CC(=C)CN6C[C@H](F)C7)nc5c3F)N3C[C@H]5CC[C@H](N5)[C@H]3[C@H](C)O4)c12 (stereo partly drawn) [Example Z633, (5S,5aS,6S,9R)-2-(8-ethynyl-7-fluoronaphthalen-1-yl)-1-fluoro-12-(((2R)-2-fluoro-6-methylenetetrahydro-1H-pyrrolizin-7a (5H)-yl)methoxy)-5-methyl-5a,6,7,8,9,10-hexahydro-5H-4-oxa-3,10a,11,13,14-pentaaza-6,9-methanonaphtho[1,8-ab]heptalene] | 56.7 | 14.5 | 59 | – | – | –
4 | C#Cc1c(F)ccc2cccc(-c3nc4c5c(nc(OCC67CC(=C)CN6C[C@H](F)C7)nc5c3F)N3CC5CCC(N5)C3C(CF)O4)c12 (stereo partly drawn) [Example Z679, 2-(8-Ethynyl-7-Fluoronaphthalen-1-Yl)-1-Fluoro-12-(((2R)-2-Fluoro-6-Methylenetetrahydro-1H-Pyrrolizin-7a (5H)-Yl)Methoxy)-5-(Fluoromethyl)-5a,6,7,8,9,10-Hexahydro-5H-4-Oxa-3.10a,11,13,14-Pentaaza-6,9-Methanonaphtho[1,8-Ab]Heptalene] | – | – | – | 352 | 117 | 393
5 | C#Cc1cc(F)cc2cccc(-c3nc4c5c(nc(OCC67CC(=C)CN6CC(=C)C7)nc5c3F)N3C[C@H]5CC[C@H](N5)[C@H]3[C@H](C)O4)c12 [Example Z550, (5S,5aS,6S,9R)-12-((2,6-dimethylenetetrahydro-1H-pyrrolizin-7a (5H)-yl)methoxy)-2-(8-ethynyl-6-fluoronaphthalen-1-yl)-1-fluoro-5-methyl-5a,6,7,8,9,10-hexahydro-5H-4-oxa-3,10a, 11,13,14-pentaaza-6,9-methanonaphtho[1,8-ab]heptalene] | 394 | 91.2 | 109 | – | – | –
6 | C#Cc1cccc2cccc(-c3nc4c5c(nc(OC[C@@]67CCCN6C[C@H](F)C7)nc5c3F)N3C[C@H]5CC[C@H](N5)[C@H]3[C@H](CC)O4)c12 [Example Z387, (5S,5aS,6S,9R)-5-ethyl-2-(8-ethynylnaphthalen-1-yl)-1-fluoro-12-(((2R,7aS)-2-fluorotetrahydro-1H-pyrrolizin-7a (5H)-yl)methoxy)-5a,6,7,8,9,10-hexahydro-5H-4-oxa-3,10a, 11,13,14-pentaaza-6,9-methanonaphtho[1,8-ab]heptalene] | 202 | 50.2 | 73.3 | – | – | –
7 | C#Cc1c(F)ccc2cccc(-c3nc4c5c(nc(OC[C@@]67CCCN6CC(=C)C7)nc5c3F)N3C[C@H]5CC[C@H](N5)[C@H]3[C@H](C)O4)c12 [Example Z637, (5S,5aS,6S,9R)-2-(8-ethynyl-7-fluoronaphthalen-1-yl)-1-fluoro-5-methyl-12-(((S)-2-methylenetetrahydro-1H-pyrrolizin-7a (5H)-yl)methoxy)-5a,6,7,8,9,10-hexahydro-5H-4-oxa-3,10a,11,13,14-pentaaza-6,9-methanonaphtho[1,8-ab]heptalene] | 112 | 48.8 | 67.6 | – | – | –
8 | C#Cc1c(F)ccc2cccc(-c3nc4c5c(nc(OCC67CCC8(CC8)N6CC(=C)C7)nc5c3F)N3C[C@H]5CC[C@H](N5)[C@H]3[C@H](C)O4)c12 (stereo partly drawn) [Example Z597] | – | – | – | 98.7 | 48.5 | 47.9
9 | C#Cc1cccc2cc(N)cc(-c3nc4c5c(nc(OC[C@@H]6C[C@@H](F)CN6C)nc5c3F)N3C[C@H]5CC[C@H](N5)[C@H]3[C@H](C)O4)c12 [Example Z732, 5-ethynyl-4-((5S,5aS,6S,9R)-1-fluoro-12-(((28,4R)-4-fluoro-1-methylpyrrolidin-2-yl)methoxy)-5-methyl-5a,6,7,8,9,10-hexahydro-5H-4-oxa-3,10a, 11, 13, 14-pentaaza-6,9-methanonaphtho[1,8-ab]heptalene-2-yl) naphthalen-2-amine] | – | – | – | 11.8 | 2.88 | 10.8
10 | C#Cc1c(F)ccc2cccc(-c3nc4c5c(nc(OCC67CC(=C)CN6CC(F)C7)nc5c3F)N3C[C@H]5CC[C@H](N5)[C@H]3[C@H](C)O4)c12 (stereo partly drawn) [Example Z607, (5S,5aS,6S,9R)-2-(8-ethynyl-7-fluoronaphthalen-1-yl)-1-fluoro-12-((2-fluoro-6-methylenetetrahydro-1H-pyrrolizin-7a (5H)-yl)methoxy)-5-methyl-5a,6,7,8,9,10-hexahydro-5H-4-oxa-3,10a,11,13,14-pentaaza-6,9-methanonaphtho[1,8-ab]heptalene] | 101 | 24.4 | 81.2 | – | – | –
11 | C#Cc1c(F)ccc2cccc(-c3nc4c5c(nc(OCC67CCCN6C6(CC6)CC7)nc5c3F)N3C[C@H]5CC[C@H](N5)[C@H]3[C@H](C)O4)c12 (stereo partly drawn) [Example Z631, (5S,5aS,6S,9R)-2-(8-Ethynyl-7-Fluoronaphthalen-1-Yl)-1-Fluoro-5-Methyl-12-((Tetrahydrospiro[Cyclopropane-1,3′-Pyrrolizin]-7a′ (5′H)-Yl)Methoxy)-5a,6,7,8,9,10-Hexahydro-5H-4-Oxa-3,10a,11,13,14-Pentaaza-6,9-Methanonaphtho[1,8-Ab]Heptalene] | 254 | 91.9 | 201 | – | – | –
12 | C#Cc1cccc2cccc(-c3nc4c5c(nc(OCC67CC(=C)CN6CC(=C)C7)nc5c3F)N3C[C@H]5CC[C@H](N5)[C@H]3[C@H](C)O4)c12 [Example Z551, (58,5aS,6S,9R)-12-((2,6-dimethylenetetrahydro-1H-pyrrolizin-7a (5H)-yl)methoxy)-2-(8-ethynylnaphthalen-1-yl)-1-fluoro-5-methyl-5a,6,7,8,9,10-hexahydro-5H-4-oxa-3,10a,11,13,14-pentaaza-6,9-methanonaphtho[1,8-ab]heptalene] | 170 | 61 | 45.4 | – | – | –
13 | C#Cc1cccc2cc(N)cc(-c3nc4c5c(nc(OCC67CC(=C)CN6CC(=C)C7)nc5c3F)N3C[C@H]5CC[C@H](N5)[C@H]3[C@H](C)O4)c12 [Example Z703, 4-((5S,5aS,6S,9R)-12-((2,6-dimethylenetetrahydro-1H-pyrrolizin-7a (5H)-yl)methoxy)-1-fluoro-5-methyl-5a,6,7,8,9,10-gexahydro-5H-4-oxa-3,10a,11,13,14-pentaaza-6,9-methanonaphtho[1,8-ab]heptalene-2-yl)-5-ethynylnaphthalen-2-amine] | – | – | – | 1.78 | 1.05 | 2.64
14 | C#Cc1cccc2cc(N)cc(-c3nc4c5c(nc(OC[C@@]67CCCN6CC(F)(F)C7)nc5c3F)N3C[C@H]5CC[C@H](N5)[C@H]3[C@H](C)O4)c12 (single isomer, unassigned) [Example Z735] | 18.1 | 5.62 | 35.2 | – | – | –
